Structures can show the parent of a compound that is named as a salt.
Test system: LTB4 production in HL-60 cells
Assay: A23187-Induced LTB4 Production in Human Promyelocytic Leukemia HL-60 Cells (HL-60 Cell Assay)
Format: cell-based
Conditions: for inhibition at 100 µM: 10^-4 M; for inhibition at 10 µM: 10^-5 M; for IC50: A23187-stimulated differentiated HL-60 cells, 10 minutes preincubation at 37° C.
Description: A23187-Induced LTB4 Production in Human Promyelocytic Leukemia HL-60 Cells.
Calcium ionophore A23187 was obtained from Calbiochem (La Jolla, CA). Trans-stilbene oxide was obtained from Sigma (St. Louis, MO). Hanks' balanced salt solution (HBSS) (10X concentrate), 1 M Hepes, and Dulbecco's modified Eagle medium were obtained from GIBCO Laboratories (Grand Island, NY). Fetal bovine serum was obtained from HyClone Laboratories (Logan, UT) The LTB4 and PGE2 radioimmunoassay antibodies were purchased from Amersham International plc (Amersham, UK) and NEN Research Products (N. Billerica, MA), respectively. Reagents for assay of lactate dehydrogenase (LDH) activity were purchased from Beckman (Carlsbad, CA).
Preparation of HL 60 Cells:
HL-60 cells were cultured in Dulbecco's modified Eagle medium (supplementedwith 20% fetal bovine serum, 20 mM Hepes, 100 U/ml penicillin and 100 mcg/ml streptomycin) and maintained at 37° C. in a humidified atmosphere of 5% CO2 in air. Cells from exponentially growing cultures were seeded at 3×10^5 cells/ml and induced to differentiate into granulocyte with 0.8% (v/v) N,N dimethylformamide for 4 days (1,2). Prior to assay, differentiated HL-60 cells were washed once with Hanks' balanced salt solution containing 0.35 mg/ml sodium bicarbonate and 10 mM Hepes, pH 7.3 (HBSS) and resuspended in HBSS at a concentration of 3×10^6 cells/ml.
DMSO or test compounds as 100× concentrates in DMSO were added in duplicate to 1.0 ml HL-60 cell suspensions (3×10^6 cells) and preincubated at 37° C. for 10 minutes in a shaking water bath. After an additional 5 minute incubation with calcium ionophore A23187 (10 mcl @ 5×10^-4 M in DMSO), the cells were pelleted at 12,800×g for 15 seconds and the supernatant removed and stored at […] for quantification of LTB4 or PGE2 via radioimmunoassay and LDH activity.
LTB4 and PGE2 data were expressed as percent inhibition of A23187-stimulated controls. For IC50 determinations, the 4 parameter logistic model was used where y is the percent inhibition response and×is the log10 concentration of the inhibitor: [formula] Nonlinear regression was performed using the SAS (3) procedure NLIN to obtain least squares estimates of the four parameters in the above equation: y.infin. (maximum), Y0 (minimum), a (log10 IC50) and b (slope factor). Increases in mean LDH levels for A23187-stimulated cells in the presence of test compound were tested for significance using a one tailed two sample Student's t-test.

Row | Structure (SMILES) | inhibition at 100 µM (A23187-stimulated HL-60 cells) [%] | inhibition at 10 µM (A23187-stimulated HL-60 cells) [%] | IC50 [µM] | inhibition at 1 µM (10^-6 M, A23187-stimulated HL-60 cells) [%]
1 | CCCCCCCCCC/C=C/C=C/C1OCC(CCCC(=O)O)O1 (racemic) [Example 5B (Racemic Mixture), 2-Tetradeca-1E,3E-dienyl-1,3-dixolane-4-butanoic acid, lithium salt] | 96 | 80 | 6.8 | 
2 | CCCCCCCCCC/C=C/C=C/C1OCC(CCCC(=O)O)O1 (single isomer, unassigned) [Example 5B (Single Diastereomer), 2-Tetradeca-1E,3E-dienyl-1,3-dixolane-4-butanoic acid, lithium salt] | 91 | 77 | 7.2 | 
3 | CCCCCCCCCC/C=C/C=C/C1OCC(c2cccc(C(=O)O)c2)O1 (racemic) [Example 7B (Racemic Mixture), 3-(2-Tetradeca-1E,3E-dienyl-1,3-dioxolan-4-yl)benzoic acid, lithium salt] | 89 | 91 | 2.5 | 21
4 | CCCCCCCCCC/C=C/C=C/C1OCC(c2cccc(C(=O)[O-])c2)O1.[Li+] (single isomer, unassigned) [Example 7B (Single diastereomer), 3-(2-Tetradeca-1E,3E-dienyl-1,3-dioxolan-4-yl)benzoic acid, lithium salt] | 92 | 92 | 3.6 | 
5 | CCCCCCC/C=C/C=C/C1OCC(CCCC(=O)O)O1 (racemic) [Example 8B, (±) 2-Undeca-1E,3E-dienyl-1,3-dioxolane-4-butanoic acid, lithium salt] | 84 |  |  | 
